Measured values published in ChEMBL document CHEMBL5625277, “Systematical mutational analysis of teriparatide on anti-osteoporosis activity by alanine scanning” (Bioorg Med Chem Lett, 2024).

Test: Cytotoxicity in pre-osteoblasts (unknown origin) assessed as cell death upto 5 uM by CCK8 assay
Type: toxicity, cell-based
Conditions: pre-osteoblast

Compound	Activity
CC[C@H](C)[C@H](NC(=O)[C@H](CCC(=O)O)NC(=O)[C@H](CO)NC(=O)[C@@H](NC(=O)[C@H](CO)NC(C)=O)C(C)C)C(=O)N[C@@H](CCC(N)=O)C(=O)N[C@@H](CC(C)C)C(=O)N[C@@H](CCSC)C(=O)N[C@@H](Cc1cnc[nH]1)C(=O)N[C@@H](CC(N)=O)C(=O)N[C@@H](CC(C)C)C(=O)NCC(=O)N[C@@H](CCCCN)C(=O)N[C@@H](Cc1cnc[nH]1)C(=O)N[C@@H](CC(C)C)C(=O)N[C@@H](C)C(=O)N[C@@H](CO)C(=O)N[C@@H](CCSC)C(=O)N[C@@H](CCC(=O)O)C(=O)N[C@@H](CCCNC(=N)N)C(=O)N[C@H](C(=O)N[C@@H](CCC(=O)O)C(=O)N[C@@H](Cc1c[nH]c2ccccc12)C(=O)N[C@@H](CC(C)C)C(=O)N[C@@H](CCCNC(=N)N)C(=O)N[C@@H](CCCCN)C(=O)N[C@@H](CCCCN)C(=O)N[C@@H](CC(C)C)C(=O)N[C@@H](CCC(N)=O)C(=O)N[C@@H](CC(=O)O)C(=O)N[C@H](C(=O)N[C@@H](Cc1cnc[nH]1)C(=O)N[C@@H](CC(N)=O)C(=O)N[C@@H](Cc1ccccc1)C(N)=O)C(C)C)C(C)C	Non-Toxic
CC[C@H](C)[C@H](NC(=O)[C@H](CCC(=O)O)NC(=O)[C@H](CO)NC(=O)[C@@H](NC(=O)[C@H](CO)NC(C)=O)C(C)C)C(=O)N[C@@H](CCC(N)=O)C(=O)N[C@@H](CC(C)C)C(=O)N[C@@H](CCSC)C(=O)N[C@@H](Cc1cnc[nH]1)C(=O)N[C@@H](CC(N)=O)C(=O)N[C@@H](CC(C)C)C(=O)NCC(=O)N[C@@H](CCCCN)C(=O)N[C@@H](Cc1cnc[nH]1)C(=O)N[C@@H](CC(C)C)C(=O)N[C@@H](CC(N)=O)C(=O)N[C@@H](CO)C(=O)N[C@@H](CCSC)C(=O)N[C@@H](CCC(=O)O)C(=O)N[C@@H](CCCNC(=N)N)C(=O)N[C@H](C(=O)N[C@@H](CCC(=O)O)C(=O)N[C@@H](Cc1c[nH]c2ccccc12)C(=O)N[C@@H](CC(C)C)C(=O)N[C@@H](CCCNC(=N)N)C(=O)N[C@@H](CCCCN)C(=O)N[C@@H](CCCCN)C(=O)N[C@@H](CC(C)C)C(=O)N[C@@H](C)C(=O)N[C@@H](CC(=O)O)C(=O)N[C@H](C(=O)N[C@@H](Cc1cnc[nH]1)C(=O)N[C@@H](CC(N)=O)C(=O)N[C@@H](Cc1ccccc1)C(N)=O)C(C)C)C(C)C	Non-Toxic
CC[C@H](C)[C@H](NC(=O)[C@H](CCC(=O)O)NC(=O)[C@H](CO)NC(=O)[C@@H](NC(=O)[C@H](CO)NC(C)=O)C(C)C)C(=O)N[C@@H](CCC(N)=O)C(=O)N[C@@H](CC(C)C)C(=O)N[C@@H](CCSC)C(=O)N[C@@H](Cc1cnc[nH]1)C(=O)N[C@@H](CC(N)=O)C(=O)N[C@@H](C)C(=O)NCC(=O)N[C@@H](CCCCN)C(=O)N[C@@H](Cc1cnc[nH]1)C(=O)N[C@@H](CC(C)C)C(=O)N[C@@H](CC(N)=O)C(=O)N[C@@H](CO)C(=O)N[C@@H](CCSC)C(=O)N[C@@H](CCC(=O)O)C(=O)N[C@@H](CCCNC(=N)N)C(=O)N[C@H](C(=O)N[C@@H](CCC(=O)O)C(=O)N[C@@H](Cc1c[nH]c2ccccc12)C(=O)N[C@@H](CC(C)C)C(=O)N[C@@H](CCCNC(=N)N)C(=O)N[C@@H](CCCCN)C(=O)N[C@@H](CCCCN)C(=O)N[C@@H](CC(C)C)C(=O)N[C@@H](CCC(N)=O)C(=O)N[C@@H](CC(=O)O)C(=O)N[C@H](C(=O)N[C@@H](Cc1cnc[nH]1)C(=O)N[C@@H](CC(N)=O)C(=O)N[C@@H](Cc1ccccc1)C(N)=O)C(C)C)C(C)C	Non-Toxic
CC[C@H](C)[C@H](NC(=O)[C@H](CCC(=O)O)NC(=O)[C@H](CO)NC(=O)[C@@H](NC(=O)[C@H](CO)NC(C)=O)C(C)C)C(=O)N[C@@H](CCC(N)=O)C(=O)N[C@@H](CC(C)C)C(=O)N[C@@H](CCSC)C(=O)N[C@@H](Cc1cnc[nH]1)C(=O)N[C@@H](CC(N)=O)C(=O)N[C@@H](CC(C)C)C(=O)NCC(=O)N[C@@H](CCCCN)C(=O)N[C@@H](Cc1cnc[nH]1)C(=O)N[C@@H](CC(C)C)C(=O)N[C@@H](CC(N)=O)C(=O)N[C@@H](CO)C(=O)N[C@@H](CCSC)C(=O)N[C@@H](CCC(=O)O)C(=O)N[C@@H](CCCNC(=N)N)C(=O)N[C@H](C(=O)N[C@@H](CCC(=O)O)C(=O)N[C@@H](Cc1c[nH]c2ccccc12)C(=O)N[C@@H](CC(C)C)C(=O)N[C@@H](CCCNC(=N)N)C(=O)N[C@@H](CCCCN)C(=O)N[C@@H](CCCCN)C(=O)N[C@@H](CC(C)C)C(=O)N[C@@H](CCC(N)=O)C(=O)N[C@@H](CC(=O)O)C(=O)N[C@H](C(=O)N[C@@H](Cc1cnc[nH]1)C(=O)N[C@@H](C)C(=O)N[C@@H](Cc1ccccc1)C(N)=O)C(C)C)C(C)C	Non-Toxic
CC[C@H](C)[C@H](NC(=O)[C@H](CCC(=O)O)NC(=O)[C@H](CO)NC(=O)[C@@H](NC(=O)[C@H](CO)NC(C)=O)C(C)C)C(=O)N[C@@H](CCC(N)=O)C(=O)N[C@@H](CC(C)C)C(=O)N[C@@H](CCSC)C(=O)N[C@@H](Cc1cnc[nH]1)C(=O)N[C@@H](CC(N)=O)C(=O)N[C@@H](CC(C)C)C(=O)N[C@@H](C)C(=O)N[C@@H](CCCCN)C(=O)N[C@@H](Cc1cnc[nH]1)C(=O)N[C@@H](CC(C)C)C(=O)N[C@@H](CC(N)=O)C(=O)N[C@@H](CO)C(=O)N[C@@H](CCSC)C(=O)N[C@@H](CCC(=O)O)C(=O)N[C@@H](CCCNC(=N)N)C(=O)N[C@H](C(=O)N[C@@H](CCC(=O)O)C(=O)N[C@@H](Cc1c[nH]c2ccccc12)C(=O)N[C@@H](CC(C)C)C(=O)N[C@@H](CCCNC(=N)N)C(=O)N[C@@H](CCCCN)C(=O)N[C@@H](CCCCN)C(=O)N[C@@H](CC(C)C)C(=O)N[C@@H](CCC(N)=O)C(=O)N[C@@H](CC(=O)O)C(=O)N[C@H](C(=O)N[C@@H](Cc1cnc[nH]1)C(=O)N[C@@H](CC(N)=O)C(=O)N[C@@H](Cc1ccccc1)C(N)=O)C(C)C)C(C)C	Non-Toxic
CC[C@H](C)[C@H](NC(=O)[C@H](CCC(=O)O)NC(=O)[C@H](CO)NC(=O)[C@@H](NC(=O)[C@H](CO)NC(C)=O)C(C)C)C(=O)N[C@@H](CCC(N)=O)C(=O)N[C@@H](CC(C)C)C(=O)N[C@@H](CCSC)C(=O)N[C@@H](Cc1cnc[nH]1)C(=O)N[C@@H](CC(N)=O)C(=O)N[C@@H](CC(C)C)C(=O)NCC(=O)N[C@@H](CCCCN)C(=O)N[C@@H](Cc1cnc[nH]1)C(=O)N[C@@H](CC(C)C)C(=O)N[C@@H](CC(N)=O)C(=O)N[C@@H](CO)C(=O)N[C@@H](CCSC)C(=O)N[C@@H](CCC(=O)O)C(=O)N[C@@H](CCCNC(=N)N)C(=O)N[C@H](C(=O)N[C@@H](CCC(=O)O)C(=O)N[C@@H](Cc1c[nH]c2ccccc12)C(=O)N[C@@H](CC(C)C)C(=O)N[C@@H](CCCNC(=N)N)C(=O)N[C@@H](C)C(=O)N[C@@H](CCCCN)C(=O)N[C@@H](CC(C)C)C(=O)N[C@@H](CCC(N)=O)C(=O)N[C@@H](CC(=O)O)C(=O)N[C@H](C(=O)N[C@@H](Cc1cnc[nH]1)C(=O)N[C@@H](CC(N)=O)C(=O)N[C@@H](Cc1ccccc1)C(N)=O)C(C)C)C(C)C	Non-Toxic
CC[C@H](C)[C@H](NC(=O)[C@H](CCC(=O)O)NC(=O)[C@H](CO)NC(=O)[C@@H](NC(=O)[C@H](CO)NC(C)=O)C(C)C)C(=O)N[C@@H](CCC(N)=O)C(=O)N[C@@H](CC(C)C)C(=O)N[C@@H](CCSC)C(=O)N[C@@H](Cc1cnc[nH]1)C(=O)N[C@@H](CC(N)=O)C(=O)N[C@@H](CC(C)C)C(=O)NCC(=O)N[C@@H](CCCCN)C(=O)N[C@@H](Cc1cnc[nH]1)C(=O)N[C@@H](CC(C)C)C(=O)N[C@@H](CC(N)=O)C(=O)N[C@@H](CO)C(=O)N[C@@H](CCSC)C(=O)N[C@@H](CCC(=O)O)C(=O)N[C@@H](CCCNC(=N)N)C(=O)N[C@H](C(=O)N[C@@H](CCC(=O)O)C(=O)N[C@@H](C)C(=O)N[C@@H](CC(C)C)C(=O)N[C@@H](CCCNC(=N)N)C(=O)N[C@@H](CCCCN)C(=O)N[C@@H](CCCCN)C(=O)N[C@@H](CC(C)C)C(=O)N[C@@H](CCC(N)=O)C(=O)N[C@@H](CC(=O)O)C(=O)N[C@H](C(=O)N[C@@H](Cc1cnc[nH]1)C(=O)N[C@@H](CC(N)=O)C(=O)N[C@@H](Cc1ccccc1)C(N)=O)C(C)C)C(C)C	Non-Toxic
CC[C@H](C)[C@H](NC(=O)[C@H](CCC(=O)O)NC(=O)[C@H](CO)NC(=O)[C@@H](NC(=O)[C@H](CO)NC(C)=O)C(C)C)C(=O)N[C@@H](CCC(N)=O)C(=O)N[C@@H](CC(C)C)C(=O)N[C@@H](CCSC)C(=O)N[C@@H](Cc1cnc[nH]1)C(=O)N[C@@H](CC(N)=O)C(=O)N[C@@H](CC(C)C)C(=O)NCC(=O)N[C@@H](CCCCN)C(=O)N[C@@H](Cc1cnc[nH]1)C(=O)N[C@@H](CC(C)C)C(=O)N[C@@H](CC(N)=O)C(=O)N[C@@H](CO)C(=O)N[C@@H](CCSC)C(=O)N[C@@H](CCC(=O)O)C(=O)N[C@@H](CCCNC(=N)N)C(=O)N[C@H](C(=O)N[C@@H](CCC(=O)O)C(=O)N[C@@H](Cc1c[nH]c2ccccc12)C(=O)N[C@@H](CC(C)C)C(=O)N[C@@H](CCCNC(=N)N)C(=O)N[C@@H](CCCCN)C(=O)N[C@@H](C)C(=O)N[C@@H](CC(C)C)C(=O)N[C@@H](CCC(N)=O)C(=O)N[C@@H](CC(=O)O)C(=O)N[C@H](C(=O)N[C@@H](Cc1cnc[nH]1)C(=O)N[C@@H](CC(N)=O)C(=O)N[C@@H](Cc1ccccc1)C(N)=O)C(C)C)C(C)C	Non-Toxic
CC[C@H](C)[C@H](NC(=O)[C@H](CCC(=O)O)NC(=O)[C@H](CO)NC(=O)[C@@H](NC(=O)[C@H](CO)NC(C)=O)C(C)C)C(=O)N[C@@H](C)C(=O)N[C@@H](CC(C)C)C(=O)N[C@@H](CCSC)C(=O)N[C@@H](Cc1cnc[nH]1)C(=O)N[C@@H](CC(N)=O)C(=O)N[C@@H](CC(C)C)C(=O)NCC(=O)N[C@@H](CCCCN)C(=O)N[C@@H](Cc1cnc[nH]1)C(=O)N[C@@H](CC(C)C)C(=O)N[C@@H](CC(N)=O)C(=O)N[C@@H](CO)C(=O)N[C@@H](CCSC)C(=O)N[C@@H](CCC(=O)O)C(=O)N[C@@H](CCCNC(=N)N)C(=O)N[C@H](C(=O)N[C@@H](CCC(=O)O)C(=O)N[C@@H](Cc1c[nH]c2ccccc12)C(=O)N[C@@H](CC(C)C)C(=O)N[C@@H](CCCNC(=N)N)C(=O)N[C@@H](CCCCN)C(=O)N[C@@H](CCCCN)C(=O)N[C@@H](CC(C)C)C(=O)N[C@@H](CCC(N)=O)C(=O)N[C@@H](CC(=O)O)C(=O)N[C@H](C(=O)N[C@@H](Cc1cnc[nH]1)C(=O)N[C@@H](CC(N)=O)C(=O)N[C@@H](Cc1ccccc1)C(N)=O)C(C)C)C(C)C	Non-Toxic
